Laboratory results: patent US7199219B1, “Polypeptides derived from vitamin D nuclear receptor, and their uses in particular for screening vitamin D analogues” (Centre National de la Recherche Scientifique, priority 1999, dated 2007)

T1: VDR (Bos taurus, UniProt Q28037)
T1 sequence (Q28037 1-426): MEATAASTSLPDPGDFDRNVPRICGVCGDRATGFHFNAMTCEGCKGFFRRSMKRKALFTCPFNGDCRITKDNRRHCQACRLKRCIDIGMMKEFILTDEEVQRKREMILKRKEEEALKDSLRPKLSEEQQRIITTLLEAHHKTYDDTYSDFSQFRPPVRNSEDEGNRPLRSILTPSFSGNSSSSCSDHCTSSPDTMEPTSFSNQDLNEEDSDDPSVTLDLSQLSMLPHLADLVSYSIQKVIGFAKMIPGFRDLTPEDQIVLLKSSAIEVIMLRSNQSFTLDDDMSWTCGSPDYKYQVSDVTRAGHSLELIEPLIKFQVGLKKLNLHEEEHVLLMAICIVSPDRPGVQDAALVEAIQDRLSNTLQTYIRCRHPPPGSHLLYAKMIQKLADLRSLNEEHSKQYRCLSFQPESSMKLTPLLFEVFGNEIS


How the values were obtained:
VDR = molecular target: T1, VDR; settings: versus 1,25(OH)2 D3; cited from earlier work
[1] = tested on: 17 m5-TATA-CAT reporter gene responding to GAL4; experiment: GAL4-LBD chimera transactivation, CAT reporter in transfected Cos cells; format: cell-based; settings: Gal4 (1–147) fusion, Cos cells, 1,25(OH)2 D3 10^−7M
From the text: b) CAT activities of the wild-type hVDR and of the mutant hVDR; these activities are indicated on the ordinate as a percentage; column 1 corresponds to the CAT activity measured in the absence of vitamin D (VD), of wild-type (wild-type) hVDR and of mutant (truncated) hVDR; column 2 corresponds to CAT activity measured in the presence of VD and in the absence of wild-type hVDR and of mutant hVDR; column 3 corresponds to CAT activity measured in the presence of wild-type hVDR and in the absence of VD and of mutant hVDR; column 4 corresponds to CAT activity measured in the presence of VD and of wild-type hVDR and in the absence of mutant hVDR; column 5 corresponds to CAT activity measured in the presence of mutant hVDR, and in the absence of VD and of wild-type hVDR; column 6 corresponds to CAT activity measured in the presence of mutant hVDR and of VD and in the absence of wild-type hVDR.
No significant change was observed between the dissociation constants of the wild-type and mutant VDRs was observed, the values being similar to that described previously for the whole receptor (Bouillon et al., 1995). […] The chimeric proteins were expressed by transfection into Cos cells, and the transactivation was measured with an appropriate reporter responding to GAL4.

| Molecule | binding affinity relative to the natural ligand (VDR) [times] | transactivation properties (CAT activity) compared with wild-type LBD [1] |
| --- | --- | --- |
| C=C1C(=CC=C2CCCC3(C)C2CCC3C(C)CCCC(C)(C)O)CC(O)C(C)C1O (stereo not drawn) [2 α-methyl 1,25(OH)2 D3] | 4 | – |
| mutant VDR: polypeptide derived from human VDR in which residues 1–117 and 165–215 are suppressed (protein, Description of the artificial sequence polypeptide derived from the nuclear receptor of the human vitamin D, polypeptide derived from human VDR in which residues 1–117 and 165–215 are suppressed) DSLRPKLSEEQQRIIAILLDAHHKTYDPTYSDFCQFRPPVRVNDGGGSVTLELSQLSMLPHLADLVSYSIQKVIGFAKMIPGFRDLTSEDQIVLLKSSAIEVIMLRSNESFTMDDMSWTCGNQDYKYRVSDVTKAGHSLELIEPLIKFQVGLKKLNLHEEEHVLLMAICIVSPDRPGVQDAALIEAIQDRLSNTLQTYIRCRHPPPGSHLLYAKMIQKLADLRSLNEEHSKQYRCLSFQPECSMKLTPLVLEVFGNEIS | – | comparable transactivation properties |
